{
  "source": "paper PMC10038264",
  "about": "“A new family of glutamate-gated chloride channels in parasitic sea louse Caligus rogercresseyi: A subunit refractory to activation by ivermectin is dominant in heteromeric assemblies” (PLOS Pathogens, 2023)",
  "key": {"CrGluCl-A": {"biological_target": "CrGluCl-A (Caligus rogercresseyi, UniProt A0A1W6LZ70)", "sequence (A0A1W6LZ70 entry or part of it)": "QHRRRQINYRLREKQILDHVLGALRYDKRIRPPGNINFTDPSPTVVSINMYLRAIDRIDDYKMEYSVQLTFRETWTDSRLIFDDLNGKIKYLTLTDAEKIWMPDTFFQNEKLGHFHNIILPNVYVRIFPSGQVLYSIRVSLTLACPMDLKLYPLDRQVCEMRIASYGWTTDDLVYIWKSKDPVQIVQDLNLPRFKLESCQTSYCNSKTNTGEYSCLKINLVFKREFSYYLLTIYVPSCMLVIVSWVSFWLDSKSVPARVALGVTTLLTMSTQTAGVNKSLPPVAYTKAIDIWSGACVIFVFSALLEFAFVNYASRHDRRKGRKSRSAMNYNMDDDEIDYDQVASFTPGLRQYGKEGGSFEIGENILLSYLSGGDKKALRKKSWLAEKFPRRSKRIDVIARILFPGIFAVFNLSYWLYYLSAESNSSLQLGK", "settings": "cited from earlier work"}, "[1]": {"tested_on": "coexpressed CrGluCl-C:CrGluCl-B", "assay": "Voltage-clamp of oocytes coexpressing CrGluCl-C and CrGluCl-B", "type": "cell-based, Caligus rogercresseyi", "settings": "for Iver response to activation: B:C ratio 1:1, 1 μM ivermectin", "experimental": "(§1) Adult female Xenopus laevis frogs were anaesthetized by immersion in a1g/L solution tricaine (Ethyl 3-aminobenzoate methanesulfonate, Sigma) buffered to pH 7 with NaHCO3. Surgery was performed 30–40 min later, once the frog was completely anaesthetized judging by loss of reflexes. Ovarian lobes were removed through 1 cm abdominal incision and then kept at 16°C in Barth’s modified solution containing (in mM): 88 NaCl, 1 KCl, 0.4 CaCl2, 0.3 Ca (NO3)2, 0.8 MgSO4, 2.4 NaHCO3, 5 Hepes, 2.5 sodium pyruvate, 100 μg/ml gentamicin sulfate, 100 U/ml penicillin, 100 μg/ml streptomycin, 250 μg/ml amphotericin B, 0.22μm filtered and adjusted to pH 7.5 with Tris-Base. Osmolarity was brought to 220 mOsm with saccharose. The oocytes were manually defolliculated on the same day of extraction and the following day 20 ng cRNA in nuclease-free water was injected into stage V-VI oocytes using a FemtoJet microinjector (Eppendorf). Finally, the injected oocytes were stored in 96 well plates containing Barth’s modified solution and kept at 16°C until experiment day.\n(§2) Current measurements at controlled membrane potentials (voltage-clamp experiments) were performed using two intracellular microelectrodes in defolliculated Xenopus oocytes previously microinjected with 20 ng of cRNA. Voltage-clamp recording was performed at room temperature using a TURBO TEC-10CX amplifier (npi electronic GmbH, Tamm, Germany) and PClamp 10.6 software (Axon Instruments, USA), 1 to 4 days after oocyte injection. The oocytes were recorded in a chamber (Model RC-1Z, Warner Instrumenst, USA) under continuous superfusion. […] Reference was an Ag-AgCl electrode connected to the bath via a 3 M KCl in 3% agar bridge. Currents were recorded continuously during the experiments without interruptions for solution changes. […] The signal filtered at 1 kHz was acquired with a Digidata 1440A Analog-to-Digital Converter and analyzed with Axon pClamp 10.6 software. […]"}, "[2]": {"tested_on": "coexpressed CrGluCl-C:CrGluCl-A", "assay": "Voltage-clamp of oocytes coinjected with CrGluCl-C and CrGluCl-A", "type": "cell-based, Caligus rogercresseyi", "experimental": "as §1, §2"}, "CrGluCl-C": {"tested_on": "CrGluCl-C", "type": "cell-based, Caligus rogercresseyi", "settings": "for maximal current: CrGluCl-C, saturating concentration of agonist; for nH (ivermectin) / EC50: CrGluCl-C alone; for EC50: irreversible activation", "experimental": "as §1\n(§3) Current measurements at controlled membrane potentials (voltage-clamp experiments) were performed using two intracellular microelectrodes in defolliculated Xenopus oocytes previously microinjected with 20 ng of cRNA. Voltage-clamp recording was performed at room temperature using a TURBO TEC-10CX amplifier (npi electronic GmbH, Tamm, Germany) and PClamp 10.6 software (Axon Instruments, USA), 1 to 4 days after oocyte injection. The oocytes were recorded in a chamber (Model RC-1Z, Warner Instrumenst, USA) under continuous superfusion. […] Reference was an Ag-AgCl electrode connected to the bath via a 3 M KCl in 3% agar bridge. Currents were recorded continuously during the experiments without interruptions for solution changes. Oocytes were held at -30 mV and a voltage protocol consisting of a voltage drop to -100 mV for 25ms followed by a 360 ms ramp from -100 mV to 60mV applied with a period of 565 ms was continuously given. The signal filtered at 1 kHz was acquired with a Digidata 1440A Analog-to-Digital Converter and analyzed with Axon pClamp 10.6 software. The solution that bathed the oocytes during the electrophysiological recordings had the following composition (mM): 115 NaCl, 2 KCl, 1.8 CaCl2, 1 MgCl2, 10 HEPES pH 7.5 obtained with NaOH. For the low chloride solution, all the NaCl was replaced with the gluconate salt of Na. This decreases chloride concentration from 122.6 to 7.6 mM while increasing that of gluconate from 0 to 115 mM. The stock solutions of the drugs in dimethyl sulfoxide (DMSO) were: 10 mM emamectin, 10 mM ivermectin, 100 mM picrotoxin. These were diluted in bath solution to obtain final concentrations.\n(§4) The currents were normalized according to the extrapolated maximum current delivered by the Hill adjustment. In this way, the concentration that generates 50% of the maximum effect (EC50) and the Hill coefficient (nH) for each situation were obtained."}, "CrGluCl-D": {"tested_on": "CrGluCl-D", "type": "cell-based, Caligus rogercresseyi", "settings": "CrGluCl-D spontaneous current", "experimental": "as §1, §3, §4"}, "CeGluClβ (CeGLC-2)": {"tested_on": "CeGluClβ (CeGLC-2)", "settings": "cited from earlier work"}, "[3]": {"tested_on": "coexpressed CrGluCl-E:CrGluCl-B", "assay": "Voltage-clamp of oocytes coexpressing CrGluCl-E and CrGluCl-B", "type": "cell-based, Caligus rogercresseyi", "settings": "for Iver response to activation: B:E ratio 1:1, 1μM ivermectin", "experimental": "as §1, §2"}, "[4]": {"tested_on": "coexpressed CrGluCl-E:CrGluCl-C", "assay": "Voltage-clamp of oocytes coexpressing CrGluCl-E and CrGluCl-C", "type": "cell-based, Caligus rogercresseyi", "settings": "C:E ratio 1:1", "experimental": "as §1, §2"}, "[5]": {"tested_on": "coexpressed CrGluCl-A:CrGluCl-B", "assay": "Voltage-clamp of oocytes coexpressing CrGluCl-A and CrGluCl-B", "type": "cell-based, Caligus rogercresseyi", "experimental": "as §1, §3, §4"}, "[6]": {"biological_target": "coexpressed CrGluCl-E:CrGluCl-A (Caligus rogercresseyi, UniProt A0A1W6LZ70)", "sequence (A0A1W6LZ70 entry or part of it)": "as above", "assay": "Voltage-clamp of oocytes coinjected with CrGluCl-E and CrGluCl-A", "type": "cell-based", "settings": "E:A ratio 1:1", "experimental": "as §1, with “The oocytes were manually defolliculated on the same day of extraction and the following day 20 ng cRNA in nuclease-free water was injected into stage V-VI oocytes using a FemtoJet microinjector (Eppendorf). Finally, the injected oocytes were stored in 96 well plates containing Barth’s modified solution and kept at 16°C until experiment day.” left out\nCurrent measurements at controlled membrane potentials (voltage-clamp experiments) were performed using two intracellular microelectrodes in defolliculated Xenopus oocytes previously microinjected with 20 ng of cRNA. […] The oocytes were recorded in a chamber (Model RC-1Z, Warner Instrumenst, USA) under continuous superfusion. […] Currents were recorded continuously during the experiments without interruptions for solution changes. […] The signal filtered at 1 kHz was acquired with a Digidata 1440A Analog-to-Digital Converter and analyzed with Axon pClamp 10.6 software. […]"}},
  "note": "Where two headings read alike, the source gives them in different places.",
  "data": [
    {"compound": "N[C@@H](CCC(=O)O)C(=O)O", "note": "[glutamate, L-glutamate]", "values": [
      {"measurement": "nH (glutamate), previously published", "setting": "CrGluCl-A", "value": 1.33},
      {"measurement": "EC50", "setting": "CrGluCl-A; read-out: EC50 Glutamate, previously published", "value": 6.9, "unit": "µM"},
      {"measurement": "EC50", "setting": "[1]; B:C ratio 1:1", "value": "53 ± 18.8", "unit": "µM"},
      {"measurement": "EC50", "setting": "[2]; C:A 1:1, 60 mV, single Hill equation", "value": "7.9 ± 0.9", "unit": "µM"},
      {"measurement": "maximal current", "setting": "CrGluCl-C", "value": "3.5 ± 1.7", "unit": "μA"},
      {"measurement": "direct activating effect", "setting": "CrGluCl-D", "value": "lack a direct activating effect"},
      {"measurement": "EC50", "setting": "CeGluClβ (CeGLC-2); read-out: EC50 glutamate, CeGluClβ", "value": 380, "unit": "µM"},
      {"measurement": "EC50", "setting": "[3]; B:E ratio 1:1, 60 mV", "value": "534 ± 239", "unit": "µM"},
      {"measurement": "EC50", "setting": "[4]", "value": "36.5 ± 22.5", "unit": "µM"},
      {"measurement": "EC50", "setting": "[5]; A:B ratio 1:1", "value": "82 ± 35", "unit": "µM"},
      {"measurement": "EC50", "setting": "[5]; A:B ratio 1:4", "value": "72 ± 47", "unit": "µM"},
      {"measurement": "EC50", "setting": "[5]; A:B ratio 4:1", "value": "89 ± 47", "unit": "µM"},
      {"measurement": "nH (glutamate)", "setting": "[6]", "value": "2.5 ± 0.3"}
    ]},
    {"compound": "ivermectin", "values": [
      {"measurement": "nH (ivermectin)", "setting": "CrGluCl-A", "value": 2.1},
      {"measurement": "EC50", "setting": "CrGluCl-A; listed as Ivermectin, read-out: EC50 Ivermectin / avermectin irreversible activation", "value": 0.181, "unit": "µM"},
      {"measurement": "EC50", "setting": "CrGluCl-A; read-out: EC50 Ivermectin / avermectin irreversible activation", "value": "~0.2", "unit": "µM"},
      {"measurement": "Iver response to activation", "setting": "[1]", "value": "failed to elicit a significant response"},
      {"measurement": "Iver response to activation", "setting": "[1]; listed as Iver", "value": "Insensitive"},
      {"measurement": "Iver response to activation", "setting": "[2]; C:A 1:1, 60mV", "value": "Sensitive"},
      {"measurement": "Iver response to activation", "setting": "[2]; C:A 1:1, -80mV", "value": "Sensitive"},
      {"measurement": "nH (ivermectin)", "setting": "CrGluCl-C", "value": 2.1},
      {"measurement": "EC50", "setting": "CrGluCl-C; listed as Ivermectin", "value": "0.031 ± 0.014", "unit": "µM"},
      {"measurement": "EC50", "setting": "CrGluCl-C; read-out: EC50 Ivermectin", "value": "0.0311 ± 0.0144", "unit": "µM"},
      {"measurement": "nH (ivermectin)", "setting": "CrGluCl-C; listed as Ivermectin", "value": "2.1 ± 0.67"},
      {"measurement": "maximal current", "setting": "CrGluCl-C", "value": "3.7 ± 1.3", "unit": "μA"},
      {"measurement": "direct activating effect", "setting": "CrGluCl-D", "value": "lack a direct activating effect"},
      {"measurement": "nH (ivermectin inhibition)", "setting": "CeGluClβ (CeGLC-2); CeGLC-2", "value": -1.74},
      {"measurement": "IC50", "setting": "CeGluClβ (CeGLC-2); read-out: IC50 ivermectin inhibition of glutamate activated current, CeGLC-2", "value": 1.28, "unit": "µM"},
      {"measurement": "Iver response to activation", "setting": "[3]", "value": "without any activating effect"},
      {"measurement": "Iver response to activation", "setting": "[3]; listed as Iver", "value": "Insensitive"},
      {"measurement": "nH (ivermectin)", "setting": "[4]", "value": "2.1 ± 0.67"},
      {"measurement": "nH (ivermectin)", "setting": "[4]; listed as Iver", "value": "2.1 ± 0.7"},
      {"measurement": "Iver response to activation", "setting": "[5]; A:B ratio 1:1", "value": "Insensitive"},
      {"measurement": "Iver response to activation", "setting": "[5]; A:B ratio 1:4", "value": "Insensitive"},
      {"measurement": "Iver response to activation", "setting": "[5]; A:B ratio 4:1", "value": "Insensitive"},
      {"measurement": "Iver response to activation", "setting": "[6]", "value": "Sensitive"}
    ]}
  ]
}
